Earlier results, collected in US20150336981A1, “MODIFIED POLYPHENOLS AND MODIFIED POLYPHENOL COMPOSITIONS” (CELLAROUGE PTY LTD, priority 2012, published 2015).

System: high-carbohydrate, high fat diet-fed rats
Settings: HEA: high-carbohydrate, high fat diet + ellagic acid 0.8 g/kg food

## O=c1oc2c(O)c(O)cc3c(=O)oc4c(O)c(O)cc1c4c23 [ellagic acid]
  AUC: 696 ± 11 mmol·min/L
  Abdominal circumference: 21.3 ± 0.3 cm
  Abdominal fat pads: 520 ± 29 mg/mm tibial length
  BMI: 0.72 ± 0.02 g/cm^2
  Basal blood glucose: 3.9 ± 0.2 mmol/L
  Feed efficiency: 0.31 ± 0.02 g/kJ
  Final body weight: 473 ± 2 g
  Food intake: 21.0 ± 0.4 g
  Plasma C-reactive protein: 2.40 ± 0.07 µmol/L
  Plasma non-esterified fatty acids: 1.7 ± 0.2 mmol/L
  Plasma total cholesterol: 1.5 ± 0.1 mmol/L
  Plasma triglycerides: 0.5 ± 0.1 mmol/L
  Plasma urea: 6.2 ± 0.4 mmol/L
  Plasma uric acid: 44.3 ± 3.8 µmol/L
  Water intake: 19.0 ± 0.4 mL
